These results are taken from patent US9884863B2, “STAT3 inhibitor” (Board of Regents, The University of Texas System, priority 2013, dated 2018).

Molecules are shown by their SMILES. pIC50: −log10 of the molar value. Where two headings read alike, the source gives them in different places.

One data set deals with MCF-7. Briefly: MTS cell proliferation assay, MCF-7. The format is cell-based, human. Here is the method:
Cancer cells (breast cancer cell lines MCF-7, MDA-MB-361, SKBR3 and MDA-MB-231, pancreatic cancer cell lines AsPC-1. […] Proliferation was measured by treating cells with the 3-(4,5-dimethylthiazol-2-yl)-5-(3-carboxymethoxyphenyl)-2-(4-sulfophenyl)-2H-tetrazolium) (MTS) in a CellTiter 96t AQueous Non-Radioactive Cell Proliferation Assay kit from Promega, Madison, Wis., USA). Absorbance of all wells was determined by measuring OD at 550 nm after 1 hr incubation at 37° C. on a 96-well iMark™ Microplate Absorbance Reader (BioRad, Hercules, Calif.). Each individual compound was tested in quadruplicate wells for each concentration, and the results were reported as mean absorption±s.e.
In Vitro Determination of Effects of Synthesized Compounds on Cancer Cell Proliferation. Cancer cells (breast cancer cell lines MCF-7 and MDA-MB-231, pancreatic cancer cell lines AsPC-1 and Panc-1) were […], 0.01, 0.1, 1, 5, 10, […] Proliferation was measured by treating cells with the 3-(4,5-dimethylthiazol-2-yl)-5-(3-carboxymethoxyphenyl)-2-(4-sulfophenyl)-2H-tetrazolium) (MTS) in a CellTiter 96t Aqueous Non-Radioactive Cell Proliferation Assay kit (Promega, Madison, Wis., USA). Absorbance of all wells was determined by measuring OD at 550 nm after 1 h incubation at 37° C. on a 96-well iMark™ Microplate Absorbance Reader (BioRad, Hercules, Calif.). Each individual compound was tested in quadruplicate wells for each concentration.

The subject of a further data set is MDA-MB-231. Kind of data set: MTS cell proliferation assay, MDA-MB-231. It counts as cell-based, human. As to conditions: Homo sapiens, read-out: IC50 MDA-MB-231 (Table 1). Here is the method:
Cancer cells (breast cancer cell lines MCF-7, MDA-MB-361, SKBR3 and MDA-MB-231, pancreatic cancer cell lines AsPC-1. BxPC3 and Panc-1) were seeded in 96-well plates at a density of 1000-2000 cells/well and treated with DMSO, 0.01, 0.1, 1, 5, 10, and […] of STAT3 individual inhibitors for 72 hrs. Proliferation was measured by treating cells with the 3-(4,5-dimethylthiazol-2-yl)-5-(3-carboxymethoxyphenyl)-2-(4-sulfophenyl)-2H-tetrazolium) (MTS) in a CellTiter 96t AQueous Non-Radioactive Cell Proliferation Assay kit from Promega, Madison, Wis., USA). Absorbance of all wells was determined by measuring OD at 550 nm after 1 hr incubation at 37° C. on a 96-well iMark™ Microplate Absorbance Reader (BioRad, Hercules, Calif.).
In Vitro Determination of Effects of Synthesized Compounds on Cancer Cell Proliferation. Cancer cells (breast cancer cell lines MCF-7 and MDA-MB-231, pancreatic cancer cell lines AsPC-1 and Panc-1) were seeded in 96-well plates at a density of 2×10^3 cells/well and treated with DMSO, 0.01, 0.1, 1, 5, 10, and 100 μM of individual STAT3 inhibitors for 72 h. Proliferation was measured by treating cells with the 3-(4,5-dimethylthiazol-2-yl)-5-(3-carboxymethoxyphenyl)-2-(4-sulfophenyl)-2H-tetrazolium) (MTS) in a CellTiter 96t Aqueous Non-Radioactive Cell Proliferation Assay kit (Promega, Madison, Wis., USA). Absorbance of all wells was determined by measuring OD at 550 nm after 1 h incubation at 37° C. on a 96-well iMark™ Microplate Absorbance Reader (BioRad, Hercules, Calif.). Each individual compound was tested in quadruplicate wells for each concentration. […]

[1] abbreviates: Homo sapiens, MCF7, 72 h; read-out: IC50 MCF-7 (Table 1).
Where [2] appears, read: MDA-MB-231, ER-negative breast cancer, 72 hrs, >10 = no effect.
[3] abbreviates: Homo sapiens, MCF7, 72 h, read-out: IC50 MCF-7 (Table 1).

With `N#C/C(=C\c1cccc(Br)c1)C(=O)Nc1ccc2c(c1)S(=O)(=O)C=C2` [RMF-1-32, 3-(3-Bromophenyl)-2-cyano-N-(1,1-dioxo-1H-1λ^6-benzo[b]thiophen-6-yl)acrylamide], the melting point is 250 to 251 °C.

As for `Cc1cccc(/C=C(\C#N)C(=O)Nc2ccc3c(c2)S(=O)(=O)C=C3)n1` [HJC-5-88, 2-Cyano-N-(1,1-dioxo-1H-1λ^6-benzo[b]thiophen-6-yl)-3-(6-methyl-pyridin-2-yl)acrylamide], the melting point was in the range of 221 to 222 °C.

Compound `N#C/C(=C\c1cccnc1)C(=O)Nc1ccc2c(c1)S(=O)(=O)C=C2` [RMF-1-22, 2-Cyano-N-(1,1-dioxo-1H-1λ^6-benzo[b]thiophen-6-yl)-3-pyridin-3-yl-acrylamide] yielded a melting point of 255 to 256 °C.

`C[C@H](NC(=O)c1cc(Cl)ccc1O)c1ccccc1` [Compound 9, (S)-5-Chloro-2-hydroxy-N-(1-phenylethyl)benzamide] registered a melting point of 124 to 125 °C.

Compound `N#C/C(=C\c1cccc([N+](=O)[O-])c1)C(=O)Nc1ccc2c(c1)S(=O)(=O)C=C2` [RMF-1-15, 2-Cyano-N-(1,1-dioxo-1H-1λ^6-benzo[b]thiophen-6-yl)-3-(3-nitrophenyl)acrylamide] registered a melting point of 269 to 270 °C.

In the case of `O=C(Nc1nnc(-c2ccco2)o1)c1cc(Cl)ccc1O` [Compound 13, 5-Chloro-N-(5-furan-2-yl-[1,3,4]oxadiazol-2-yl)-2-hydroxybenzamide], the melting point fell in the range of 196 to 197 °C.

`N#C/C(=C\c1cccc(Cl)c1)C(=O)Nc1ccc2c(c1)S(=O)(=O)C=C2` [HJC-5-89, 3-(3-Chlorophenyl)-2-cyano-N-(1,1-dioxo-1H-1λ^6-benzo[b]thiophen-6-yl)acrylamide] registered a melting point of 234 to 235 °C.

Turning to `N#C/C(=C\c1c[nH]c2ncccc12)C(=O)Nc1ccc2c(c1)S(=O)(=O)C=C2` [RMF-1-17, 2-Cyano-N-(1,1-dioxo-1H-1λ^6-benzo[b]thiophen-6-yl)-3-(1H-pyrrolo[2,3-b]pyridin-3-yl)acrylamide], the melting point was 300 to 301 °C.

In the case of `COc1ccccc1/C=C(\C#N)C(=O)Nc1ccc2c(c1)S(=O)(=O)C=C2` [RMF-1-12, 2-Cyano-N-(1,1-dioxo-1H-1λ^6-benzo[b]thiophen-6-yl)-3-(2-methoxyphenyl)acrylamide], the melting point was in the range of 223 to 224 °C.

`O=C(Nc1ccc2c(c1)S(=O)(=O)C=C2)c1c2ccccc2nc2ccccc12`: the melting point was in the range of 237 to 238 °C.

As for `N#C/C(=C\c1cccnc1Br)C(=O)Nc1ccc2c(c1)S(=O)(=O)C=C2` [RMF-1-26, 3-(2-Bromopyridin-3-yl)-2-cyano-N-(1,1-dioxo-1H-1λ^6-benzo[b]thiophen-6-yl)acrylamide], the melting point fell in the range of 242 to 243 °C.

Consider `CN1CCN(CCOc2ccc(Cl)cc2C(=O)Nc2ccc([N+](=O)[O-])cc2Cl)CC1` [HJC-3-65, 5-Chloro-N-(2-chloro-4-nitrophenyl)-2-[2-(4-methylpiperazin-1-yl)-ethoxy]benzamide], for which the negative logarithm of the IC50 (pIC50) with MCF-7 (setting [1]) and in the data set on MDA-MB-231 (setting [2]) was under 5.00 in each case.

Consider `O=C(Nc1ccc([N+](=O)[O-])cc1Cl)c1cc(Cl)ccc1OCCN1CCCCC1` [HJC-3-84, 5-Chloro-N-(2-chloro-4-nitrophenyl)-2-(2-piperidin-1-yl-ethoxy)benzamide], for which the negative logarithm of the IC50 (pIC50) with MCF-7 (setting [1]) and in the data set with MDA-MB-231 (setting [2]) was under 5.00 throughout.

As for `CN1CCC(Oc2ccc(Cl)cc2C(=O)Nc2ccc([N+](=O)[O-])cc2Cl)CC1` [HJC-3-81, 5-Chloro-N-(2-chloro-4-nitrophenyl)-2-(1-methylpiperidin-4-yloxy)benzamide], the negative-log IC50 (pIC50) in the data set on MCF-7 (setting [3]) was 5.39; in the data set on MDA-MB-231 (MDA-MB-231, 72 h) it was 5.57. Further, the “inhibition on breast cancer cell proliferation (FIG. 1)” value with MCF-7 (MCF-7, 48 hr, μM concentrations) is on record as “significant inhibition”.

Turning to `O=C(Nc1ccc([N+](=O)[O-])cc1Cl)c1cc(Cl)ccc1OCCBr` [HJC-3-64, 2-(2-Bromoethoxy)-5-chloro-N-(2-chloro-4-nitrophenyl)benzamide], the pIC50 in the data set with MCF-7 (setting [3]) is under 5.00; in the data set with MDA-MB-231 (MDA-MB-231, 72 h), under 5.00.

Turning to `O=C(Nc1ccc2c(c1)S(=O)(=O)C=C2)c1ccnc(Br)c1` [HJC-3-95, 2-Bromo-N-(1,1-dioxo-1H-1λ^6-benzo[b]thiophen-6-yl)-isonicotinamide], the pIC50 in the data set with MCF-7 (setting [1]) is 5.44; in the data set with MDA-MB-231 (setting [2]), under 5.00.

On to `COC1CS(=O)(=O)c2cc(NC(C)=O)ccc21` (stereo not shown) [HJC-1-63, N-(3-Methoxy-1,1-dioxo-2,3-dihydro-1H-1λ^6-benzo[b]thiophen-6-yl)acetamide], for which the pIC50 in the data set on MCF-7 (setting [1]) and in the data set with MDA-MB-231 (setting [2]) was under 5.00 each time.

`O=C(Nc1ccc([N+](=O)[O-])cc1Cl)c1cc(Cl)ccc1OCCF` [HJC-3-98, 5-Chloro-N-(2-chloro-4-nitro-phenyl)-2-(2-fluoro-ethoxy)benzamide]: the negative logarithm of the IC50 (pIC50) was under 5.00 in the data set with MCF-7 (setting [3]) and under 5.00 in the data set with MDA-MB-231 (MDA-MB-231, 72 h).

For `O=C(Nc1ccc2c(c1)S(=O)(=O)C=C2)c1cccnc1` [HJC-3-76, N-(1,1-Dioxo-1H-1λ^6-benzo[b]thiophen-6-yl)-nicotinamide], the negative logarithm of the IC50 (pIC50) is 4.81 in the data set with MCF-7 (setting [3]) and under 5.00 in the data set with MDA-MB-231 (MDA-MB-231, 72 h).

For the compound `CS(=O)(=O)N1CCC(Oc2ccc(Cl)cc2C(=O)Nc2ccc([N+](=O)[O-])cc2Cl)CC1` [HJC-4-24, 5-Chloro-N-(2-chloro-4-nitrophenyl)-2-(1-methanesulfonylpiperidin-4-yloxy)benzamide], the negative-log IC50 (pIC50) in the data set on MCF-7 (setting [1]) and in the data set on MDA-MB-231 (setting [2]) was under 5.00 throughout.

Take `COc1ccc(C(=O)Nc2ccc3c(c2)S(=O)(=O)C=C3)cc1` [HJC-2-15, N-(1,1-Dioxo-1H-1λ^6-benzo[b]thiophen-6-yl)-4-methoxybenzamide]: the results for the negative-log IC50 (pIC50) with MCF-7 (setting [1]) and in the data set with MDA-MB-231 (setting [2]) were 5.23 and 5.30, respectively.

Take `O=C(Nc1ccc2c(c1)S(=O)(=O)C=C2)c1ccccn1` [HJC-3-20, Pyridine-2-carboxylic acid (1,1-dioxo-1H-1λ^6-benzo[b]thiophen-6-yl)amide]: the values for the negative-log IC50 (pIC50) in the data set on MCF-7 (setting [1]) and in the data set with MDA-MB-231 (setting [2]) were 5.17 and under 5.00, respectively.

As to `CC(=O)N1CCN(CCOc2ccc(Cl)cc2C(=O)Nc2ccc([N+](=O)[O-])cc2Cl)CC1` [HJC-4-27, 2-[2-(4-Acetylpiperazin-1-yl)-ethoxy]-5-chloro-N-(2-chloro-4-nitrophenyl)benzamide], the negative-log IC50 (pIC50) in the data set with MCF-7 (setting [1]) and in the data set with MDA-MB-231 (setting [2]) was under 5.00 each time.

Turning to `COC1CS(=O)(=O)c2cc(NC(=O)c3cc(-c4ccccc4)nc4ccccc34)ccc21` (stereo not shown) [HJC-1-57, 2-Phenyl-quinoline-4-carboxylic acid (3-methoxy-1,1-dioxo-2,3-dihydro-1H-1λ^6-benzo[b]thiophen-6-yl)amide], the negative logarithm of the IC50 (pIC50) in the data set with MCF-7 (setting [1]) is under 5.00; with MDA-MB-231 (setting [2]), 4.86.

Consider `Nc1ccc(NC(=O)c2cc(Cl)ccc2OC2CCNCC2)c(Cl)c1` [HJC-4-23, N-(4-Amino-2-chlorophenyl)-5-chloro-2-(piperidin-4-yloxy)benzamide], for which the pIC50 in the data set on MCF-7 (setting [3]) was under 5.00; with MDA-MB-231 (MDA-MB-231, 72 h) it was under 5.00.

With `O=C(Nc1ccc2c(c1)S(=O)(=O)C=C2)c1cc(Cl)ccc1OC1CCNCC1` [HJC-4-15, 5-Chloro-N-(1,1-dioxo-1H-1λ^6-benzo[b]thiophen-6-yl)-2-(piperidin-4-yloxy)benzamide], the negative-log IC50 (pIC50) in the data set with MCF-7 (setting [1]) is 5.38; in the data set on MDA-MB-231 (setting [2]), 5.55.

For the compound `N#CCC(=O)Nc1ccc2c(c1)S(=O)(=O)C=C2` [HJC-3-61, 2-Cyano-N-(1,1-dioxo-1H-1λ^6-benzo[b]thiophen-6-yl)acetamide], the pIC50 with MCF-7 (setting [3]) was under 5.00; with MDA-MB-231 (MDA-MB-231, 72 h) it was under 5.00.

Turning to `O=C(Nc1ccc2c(c1)S(=O)(=O)C=C2)c1cc(Cl)ccc1OCCN1CCCCC1` [HJC-3-79, 5-Chloro-N-(1,1-dioxo-1H-1λ^6-benzo[b]thiophen-6-yl)-2-(2-piperidin-1-yl-ethoxy)benzamide], the pIC50 was 5.43 in the data set with MCF-7 (setting [1]) and 5.60 in the data set with MDA-MB-231 (setting [2]).
